According to patent publication US5750354A, “Lipoxin transport system and uses therefor” (priority 1994, dated 1998):
Where “and” joins values, the source holds several entries; their conditions need not be identical. Identical values can stand only once. Entries after “also recorded” stand apart in the source; their conditions may differ. Like-named read-outs stand apart in the source and are kept apart here.

Experiments:
lipoxin transport system [1] = assay: [3H]LXA4 influx into human neutrophils (unidirectional tracer flux); conditions: for [3H]LXA4 Influx in presence of eicosanoid / IC50: uptake at 10 and 20 min; for initial [3H]LXA4 influx rate in presence of drug: 5 nM LXA4; for effect on uptake of [3H]LXA4: each at 0.2-0.5 mM; for IC50: read-out: K0.5, concentration at which 50% of lipoxin transport is inhibited, drug 0-500 μM, Michaelis-Menten inhibition kinetics
lipoxin transport system [2] = conditions: not told
human neutrophils [3] = assay: [3H]LXA4 methyl ester influx into human neutrophils; format: cell-based; conditions: for effect of drugs on [3H]LXA4 ME influx: DISA 0.5 mM, PCP 0.4 mM, mersalyl 0.5 mM
Procedure: Incubations were performed at 37° C. in capped, plastic tubes (Falcon Plastics, Oxnard, Calif.) under various experimental conditions (neutrophils 15-20×10^6 /ml). […] At stated intervals, duplicate aliquots of the cell suspensions were layered onto 0.5 ml of silicone oil (Versilube F-5, General Electric Corp., Waterford, N.Y.) contained in 1.5 ml plastic tubes and centrifuged for 1 min at 8,000 g in a microcentrifuge (Beckman Instruments, Fullerton, Calif.).
The aqueous and oil phases were aspirated and discarded. […] Influx is expressed here as fmol/10^6 cells/min whereas flux rates in all previous work from our laboratory (L.S.) have been reported in meq/liter of cell water.min.
(§1) Influx rates were calculated by fitting the data points to a single exponential equation (Eq. 1). Results have been taken from three experiments based upon duplicate determinations. […] Specific binding was taken as the difference between total and non-specific binding. […] Results are from three separate experiments, each performed in triplicate.

[4] = molecular target: T1, specific lipoxin receptors (Homo sapiens, UniProt P25090); assay: [3H]LXA4 ligand binding to human neutrophils
T1 sequence (P25090 1-351): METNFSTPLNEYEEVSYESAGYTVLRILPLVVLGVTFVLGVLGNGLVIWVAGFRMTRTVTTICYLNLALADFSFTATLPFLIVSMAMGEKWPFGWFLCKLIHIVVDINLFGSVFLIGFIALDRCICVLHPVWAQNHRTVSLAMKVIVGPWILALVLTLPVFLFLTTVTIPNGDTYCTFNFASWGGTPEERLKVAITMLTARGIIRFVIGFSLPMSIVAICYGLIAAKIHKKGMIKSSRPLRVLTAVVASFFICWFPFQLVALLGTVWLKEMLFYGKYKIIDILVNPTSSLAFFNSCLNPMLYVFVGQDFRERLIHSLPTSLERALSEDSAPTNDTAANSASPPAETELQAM
Procedure: as §1

human neutrophils [5] = system: human neutrophils
lipoxin transport system [6] = assay: Irreversible inhibition of [3H]LXA4 influx after pretreatment of neutrophils with sulfhydryl-reactive agents; format: cell-based, human
[7] = combined: 0.5 mM DISA, 0.4 mM PCP, pHo 8.40
[8] = combined: 0.5 mM mersalyl, pHo 6.40

CCCCCCCCCCCCCC(=O)O[C@@H]1[C@@H](C)[C@@]2(O)[C@@H](C=C(CO)C[C@]3(O)C(=O)C(C)=C[C@@H]23)[C@@H]2C(C)(C)[C@]12OC(C)=O [PMA, phorbol myristate acetate]
increase in initial rate of [3H]LXA4 influx (lipoxin transport system [1]; 100 nM): ~ 4 fold

CCCCC/C=C\C\C=C/C=C/C=C/[C@@H](SC[C@H](N)C(=O)NCC(=O)O)[C@@H](O)CCCC(=O)O [LTD4, (5S)-hydroxy-(6R)-S-cysteinylglycyl-7,9-trans-11,14-ciseicosatetraenoic acid]
[3H]LXA4 Influx in presence of eicosanoid (lipoxin transport system [1]; eicosanoid 10 nM): 0.63 ± 0.03 fmol/10^6 cells/min | [3H]LXA4 Influx in presence of eicosanoid (lipoxin transport system [1]; eicosanoid 30 nM): 0.59 ± 0.04 fmol/10^6 cells/min | [3H]LXA4 Influx in presence of eicosanoid (lipoxin transport system [1]; eicosanoid 100 nM): 0.61 ± 0.03 fmol/10^6 cells/min | transport by the lipoxin transport system (lipoxin transport system [2]): not transported

CNc1ccc2oc(C[C@H]3O[C@@]4(CC[C@H]3C)O[C@H]([C@H](C)C(=O)c3ccc[nH]3)[C@H](C)C[C@H]4C)nc2c1C(=O)O [A23187]
enhancement of lipoxin uptake (lipoxin transport system [1]; 1 μM): ~ 1.5 fold

Oc1c(Cl)c(Cl)c(Cl)c(Cl)c1Cl [PCP, pentachlorophenol]
inhibition of [3H]LXA4 influx (lipoxin transport system [1]; 0.4 mM drug): 97% and > 80% | initial [3H]LXA4 influx rate in presence of drug (lipoxin transport system [1]; 0.4 mM drug): 0.015±0.004 fmol/10^6 cells/min | effect on uptake of [3H]LXA4 (lipoxin transport system [1]): inhibited the uptake | IC50 (lipoxin transport system [1]): 25 ± 5 µM | [3H]LXA4 ME Influx in presence of drug (human neutrophils [3]; 0.4 mM drug): 439 ± 63 fmol/10^6 cells/min | effect of drugs on [3H]LXA4 ME influx (human neutrophils [3]): completely resistant | [3H]LXA4 Binding, non-specific, in presence of drug [4]: 0.36 ± 0.04 fmol/10^6 cells | [3H]LXA4 Binding, total, in presence of drug [4]: 1.18 ± 0.04 fmol/10^6 cells | effect on binding of lipoxin to specific receptors [4]: not inhibitable | efflux final value (relative cell content, combined data set) (human neutrophils [5]; [7]): 0.46±0.02 | efflux rate coefficient (combined data set) (human neutrophils [5]; [7]): 0.098 ± 0.008 min⁻¹

CCCCC/C=C\C/C=C\C/C=C\C/C=C\CCCC(=O)O [Arachidonic Acid, arachidonic acid]
[3H]LXA4 Influx in presence of eicosanoid (lipoxin transport system [1]; eicosanoid 10 nM): 0.69 ± 0.03 fmol/10^6 cells/min | [3H]LXA4 Influx in presence of eicosanoid (lipoxin transport system [1]; eicosanoid 30 nM): 0.66 ± 0.02 fmol/10^6 cells/min | [3H]LXA4 Influx in presence of eicosanoid (lipoxin transport system [1]; eicosanoid 100 nM): 0.70 ± 0.02 fmol/10^6 cells/min

O=C(O)c1cccnc1Nc1cccc(C(F)(F)F)c1 [niflumate, niflumic acid]
inhibition of [3H]LXA4 influx (lipoxin transport system [1]; 0.2 mM drug): > 85%

COC(CNC(=O)c1ccccc1OCC(=O)O)[CH2][Hg][OH] (centres unmarked) [mersalyl]
inhibition of [3H]LXA4 influx (lipoxin transport system [1]; 0.5 mM drug): 82% and > 80% | initial [3H]LXA4 influx rate in presence of drug (lipoxin transport system [1]; 0.5 mM drug): 0.10±0.01 fmol/10^6 cells/min | effect on uptake of [3H]LXA4 (lipoxin transport system [1]): inhibited the uptake | IC50 (lipoxin transport system [1]): 112 ± 33 µM | [3H]LXA4 ME Influx in presence of drug (human neutrophils [3]; 0.5 mM drug): 500 ± 184 fmol/10^6 cells/min | effect of drugs on [3H]LXA4 ME influx (human neutrophils [3]): completely resistant | effect on binding of lipoxin to specific receptors [4]: not inhibitable | [3H]LXA4 Binding, non-specific, in presence of drug ([4]; 0.5 mM drug, + unlabeled LXA4 0.3 μM): 0.39 ± 0.03 fmol/10^6 cells | [3H]LXA4 Binding, total, in presence of drug ([4]; 0.5 mM drug, no unlabeled LXA4): 1.13 ± 0.05 fmol/10^6 cells | efflux final value (relative cell content, combined data) (human neutrophils [5]; [8]): 0.56±0.03 | efflux rate coefficient (combined data) (human neutrophils [5]; [8]): 0.079 ± 0.012 min⁻¹ | % Inhibition of Transport (irreversible) (lipoxin transport system [6]): ~ 65% and 67 ± 5%

CCCCC[C@H](O)/C=C/C=C\C=C\C=C\[C@@H](O)[C@@H](O)CCCC(=O)OC [LXA4 ME, lipoxin A4 methyl ester]
[3H]LXA4 ME Influx (human neutrophils [3]; Medium, 5 nM, 37° C., 15 s intervals through 1 min): 535±136 fmol/10^6 cells/min | influx rate relative to LXA4 free acid (human neutrophils [3]; medium alone): 1,000 fold faster | [3H]LXA4 ME Influx (human neutrophils [3]; pHo 6.40): 465 ± 45 fmol/10^6 cells/min | [3H]LXA4 ME Influx (human neutrophils [3]; pHo 8.40): 553 ± 129 fmol/10^6 cells/min

CCCCC[C@H](O)/C=C/C=C\C/C=C\C/C=C\CCCC(=O)O [15-HETE, (15S)-hydroxy-5,8,11-cis-13-trans-eicosatetraenoic acid]
[3H]LXA4 Influx in presence of eicosanoid (lipoxin transport system [1]; eicosanoid 10 nM): 0.73 ± 0.05 fmol/10^6 cells/min | [3H]LXA4 Influx in presence of eicosanoid (lipoxin transport system [1]; eicosanoid 30 nM): 0.69 ± 0.05 fmol/10^6 cells/min | [3H]LXA4 Influx in presence of eicosanoid (lipoxin transport system [1]; eicosanoid 100 nM): 0.71 ± 0.06 fmol/10^6 cells/min

CCCCC[C@H](O)/C=C/[C@H]1[C@H](O)CC(=O)[C@@H]1C/C=C\CCCC(=O)O [PGE2, prostaglandin E2]
[3H]LXA4 Influx in presence of eicosanoid (lipoxin transport system [1]; eicosanoid 10 nM): 0.58 ± 0.03 fmol/10^6 cells/min | [3H]LXA4 Influx in presence of eicosanoid (lipoxin transport system [1]; eicosanoid 30 nM): 0.59 ± 0.03 fmol/10^6 cells/min | [3H]LXA4 Influx in presence of eicosanoid (lipoxin transport system [1]; eicosanoid 100 nM): 0.60 ± 0.03 fmol/10^6 cells/min

N#CC(=Cc1cn(-c2ccccc2)c2ccccc12)C(=O)O [UK-5099, α-cyano-β-(1-phenylindol-3-yl)acrylic acid]
inhibition of [3H]LXA4 influx (lipoxin transport system [1]; 0.2 mM drug): 95% | initial [3H]LXA4 influx rate in presence of drug (lipoxin transport system [1]; 0.2 mM drug): 0.030±0.009 fmol/10^6 cells/min | effect on uptake of [3H]LXA4 (lipoxin transport system [1]): inhibited the uptake | effect on binding of lipoxin to specific receptors [4]: not inhibitable

CCCCCCCCCCCCCC(=O)O[C@@H]1[C@@H](C)[C@@]2(O)[C@@H](C=C(CO)C[C@@]3(O)C(=O)C(C)=C[C@@H]23)[C@@H]2C(C)(C)[C@]12OC(C)=O [4-α-PMA]
effect on lipoxin uptake (lipoxin transport system [1]; biologically inactive isomer of PMA): no effect

O=C1OC2(c3ccc(N4C(=O)C=CC4=O)cc31)c1cc(Br)c(O)c(Br)c1Oc1c2cc(Br)c(O)c1Br [Eosin-5-maleimide, eosin-5-maleimide]
% Inhibition of Transport (irreversible) (lipoxin transport system [6]; 0.50 mM, pretreatment 30 min at 4° C., washed, influx at 37° C.): 19 ± 6%

O=C(O)CI [iodoacetate, iodoacetic acid]
effect of SH-reactive compounds on [3H]LXA4 influx (lipoxin transport system [1]; 1 mM NEM, 0.4 mM iodoacetate): lacked efficacy; also recorded: do not inhibit

O=C(O)c1ccccc1Nc1ccccc1 [diphenylamine-2-carboxylate, diphenylamine-2-carboxylic acid]
inhibition of [3H]LXA4 influx (lipoxin transport system [1]; 0.5 mM drug): > 85%

CCCCC/C=C\C\C=C/C=C/C=C/[C@@H](SC[C@H](NC(=O)CC[C@H](N)C(=O)O)C(=O)NCC(=O)O)[C@@H](O)CCCC(=O)O [LTC4, (5S)-hydroxy-(6R)-S-glutathionyl-7,9-trans-11,14-cis-eicosatetraenoic acid]
[3H]LXA4 Influx in presence of eicosanoid (lipoxin transport system [1]; eicosanoid 10 nM): 0.70 ± 0.05 fmol/10^6 cells/min | [3H]LXA4 Influx in presence of eicosanoid (lipoxin transport system [1]; eicosanoid 30 nM): 0.76 ± 0.05 fmol/10^6 cells/min | [3H]LXA4 Influx in presence of eicosanoid (lipoxin transport system [1]; eicosanoid 100 nM): 0.78 ± 0.07 fmol/10^6 cells/min | transport by the lipoxin transport system (lipoxin transport system [2]): not transported

CCCCC/C=C\C[C@@H](O)/C=C/C=C/C=C\[C@@H](O)CCCC(=O)O [LTB4, (5S,12R)-dihydroxy-6,14-cis-8,10-trans-eicosatetraenoic acid]
[3H]LXA4 Influx in presence of eicosanoid (lipoxin transport system [1]; eicosanoid 10 nM): 0.67 ± 0.04 fmol/10^6 cells/min | [3H]LXA4 Influx in presence of eicosanoid (lipoxin transport system [1]; eicosanoid 30 nM): 0.64 ± 0.04 fmol/10^6 cells/min | [3H]LXA4 Influx in presence of eicosanoid (lipoxin transport system [1]; eicosanoid 100 nM): 0.70 ± 0.06 fmol/10^6 cells/min | transport by the lipoxin transport system (lipoxin transport system [2]): not transported
